Experimental data reported in ChEMBL document CHEMBL4725440, “Peptoid NPhe in AGRP-Based c[Pro-Arg-Phe-Phe-Xxx-Ala-Phe-DPro] Scaffolds Maintain Mouse MC4R Antagonist Potency” (ACS Med Chem Lett, 2020).
Where a SMILES comes first, the peptide text is derived from it.

What was measured:
Type in all cases: functional
Melanocortin receptor 4 [1] = target: T1, Melanocortin receptor 4 (Mus musculus, UniProt P56450); assay: Agonist activity at mouse MC4R by alphascreen cAMP assay
[2] = target: Melanocortin receptor 5 (Mus musculus) (UniProt P41149); assay: Agonist activity at mouse MC5R at 100 uM by alphascreen cAMP assay relative to control
[3] = target: Melanocyte-stimulating hormone receptor (Mus musculus) (UniProt Q01727); assay: Agonist activity at mouse MC1R at 100 uM by alphascreen cAMP assay relative to NDP-MSH; details: filed as partial agonist
Melanocortin receptor 3 [4] = target: T2, Melanocortin receptor 3 (Mus musculus, UniProt P33033); assay: Agonist activity at mouse MC3R by alphascreen cAMP assay
[5] = target: Melanocortin receptor 3 (Mus musculus) (UniProt P33033); assay: Agonist activity at mouse MC3R at 100 uM by alphascreen cAMP assay relative to control
[6] = target: Melanocyte-stimulating hormone receptor (Mus musculus, UniProt Q01727); assay: Agonist activity at mouse MC1R by alphascreen cAMP assay
Melanocortin receptor 4 [7] = target: T1, Melanocortin receptor 4; assay: Antagonist activity at mouse MC4R assessed as antagonist potency by alphascreen cAMP assay; details: read-out: pA2 (converted)
Melanocortin receptor 3 [8] = target: T2, Melanocortin receptor 3; assay: Antagonist activity at mouse MC3R assessed as antagonist potency by alphascreen cAMP assay; details: read-out: pA2 (converted)
Melanocortin receptor 5 = Melanocortin receptor 5 (Mus musculus, UniProt P41149); assay: Agonist activity at mouse MC5R by alphascreen cAMP assay
Sequence of Melanocortin receptor 5 (P41149 whole entry): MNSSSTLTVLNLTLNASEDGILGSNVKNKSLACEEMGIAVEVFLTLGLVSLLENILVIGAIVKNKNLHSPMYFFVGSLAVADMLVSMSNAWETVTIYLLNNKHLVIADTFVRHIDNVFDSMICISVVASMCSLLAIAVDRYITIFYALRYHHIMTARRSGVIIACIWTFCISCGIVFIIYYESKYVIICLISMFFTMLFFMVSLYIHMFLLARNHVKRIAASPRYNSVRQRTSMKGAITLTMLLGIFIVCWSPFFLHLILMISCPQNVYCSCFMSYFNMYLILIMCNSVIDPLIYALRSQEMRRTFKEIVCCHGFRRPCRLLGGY

T1 sequence (P56450 whole entry): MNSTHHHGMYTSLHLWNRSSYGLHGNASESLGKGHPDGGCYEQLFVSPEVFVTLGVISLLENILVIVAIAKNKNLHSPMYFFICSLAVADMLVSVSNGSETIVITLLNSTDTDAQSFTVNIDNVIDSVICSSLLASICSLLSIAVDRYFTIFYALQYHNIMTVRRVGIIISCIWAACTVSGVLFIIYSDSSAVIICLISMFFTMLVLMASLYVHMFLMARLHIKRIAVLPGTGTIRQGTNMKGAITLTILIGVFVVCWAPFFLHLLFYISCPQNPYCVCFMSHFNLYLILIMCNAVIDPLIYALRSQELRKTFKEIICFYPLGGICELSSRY
T2 sequence (P33033 whole entry): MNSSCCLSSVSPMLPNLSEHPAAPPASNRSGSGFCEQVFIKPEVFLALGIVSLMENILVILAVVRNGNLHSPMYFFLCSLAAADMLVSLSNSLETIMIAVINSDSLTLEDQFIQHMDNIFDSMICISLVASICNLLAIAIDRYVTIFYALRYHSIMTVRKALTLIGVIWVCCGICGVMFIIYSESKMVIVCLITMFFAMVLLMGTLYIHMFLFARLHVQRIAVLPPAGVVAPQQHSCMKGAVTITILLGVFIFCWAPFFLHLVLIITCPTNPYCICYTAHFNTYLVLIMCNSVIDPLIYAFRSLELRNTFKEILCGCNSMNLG
Sequence of Melanocyte-stimulating hormone receptor (Q01727 whole entry): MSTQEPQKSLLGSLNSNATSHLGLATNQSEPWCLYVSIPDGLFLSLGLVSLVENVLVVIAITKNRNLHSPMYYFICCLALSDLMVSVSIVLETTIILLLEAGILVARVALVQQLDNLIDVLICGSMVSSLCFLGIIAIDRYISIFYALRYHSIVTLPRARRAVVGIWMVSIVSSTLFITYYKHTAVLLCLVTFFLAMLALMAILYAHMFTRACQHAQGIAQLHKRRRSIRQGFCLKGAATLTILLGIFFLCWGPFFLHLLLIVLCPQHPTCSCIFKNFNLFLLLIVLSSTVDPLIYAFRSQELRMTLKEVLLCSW
Sequence of Melanocyte-stimulating hormone receptor (Mus musculus) (Q01727 whole entry, looked up): as the sequence (Q01727 whole entry) above
Sequence of Melanocortin receptor 5 (Mus musculus) (P41149 whole entry): as the sequence (P41149 whole entry) above
Sequence of Melanocortin receptor 3 (Mus musculus) (P33033 whole entry): as the sequence (P33033 whole entry) above

SMILES	EC50 (Melanocortin receptor 4 [1]) [µM]	Activity ([2]; filed as inverse agonist) [%]	Activity [3] [%]	EC50 (Melanocortin receptor 3 [4]) [µM]	Activity [5] [%]	EC50 [6] [µM]	Kb (Melanocortin receptor 4 [7]) [µM]	Kb (Melanocortin receptor 3 [8]) [µM]	Activity ([2]; filed as partial agonist) [%]	EC50 (Melanocortin receptor 5) [µM]	Activity ([5]; filed as agonist) [%]
C[C@@H]1NC(=O)[C@H](CC(N)=O)NC(=O)CN(Cc2ccccc2)C(=O)[C@H](Cc2ccccc2)NC(=O)[C@H](CCCNC(=N)N)NC(=O)[C@@H]2CCCN2C(=O)[C@H]2CCCN2C(=O)[C@H](Cc2ccccc2)NC1=O	> 100	10	70	> 100							
C[C@@H]1NC(=O)[C@H](CN)NC(=O)[C@H](Cc2ccccc2)NC(=O)[C@H](Cc2ccccc2)NC(=O)[C@H](CCCNC(=N)N)NC(=O)[C@@H]2CCCN2C(=O)[C@H]2CCCN2C(=O)[C@H](Cc2ccccc2)NC1=O		10			20						
C[C@@H]1NC(=O)[C@H](CN)NC(=O)[C@H](Cc2ccccc2)NC(=O)[C@H](Cc2ccccc2)NC(=O)[C@H](CCCNC(=N)N)NC(=O)[C@@H]2CCCN2C(=O)[C@H]2CCCN2C(=O)CN(Cc2ccccc2)C1=O	> 100	10		> 100		> 100	0.251	3.16			
C[C@@H]1NC(=O)CN(CCN)C(=O)[C@H](Cc2ccccc2)NC(=O)[C@H](Cc2ccccc2)NC(=O)[C@H](CCCNC(=N)N)NC(=O)[C@@H]2CCCN2C(=O)[C@H]2CCCN2C(=O)[C@H](Cc2ccccc2)NC1=O	> 100	10	60	> 100			0.00398	0.126			
C[C@@H]1NC(=O)[C@H](CC(N)=O)NC(=O)[C@H](Cc2ccccc2)NC(=O)CN(Cc2ccccc2)C(=O)[C@H](CCCNC(=N)N)NC(=O)[C@@H]2CCCN2C(=O)[C@H]2CCCN2C(=O)[C@H](Cc2ccccc2)NC1=O	> 100	10		> 100			> 3.16				
C[C@@H]1NC(=O)[C@H](CN)NC(=O)[C@H](Cc2ccccc2)NC(=O)CN(Cc2ccccc2)C(=O)[C@H](CCCNC(=N)N)NC(=O)[C@@H]2CCCN2C(=O)[C@H]2CCCN2C(=O)[C@H](Cc2ccccc2)NC1=O	> 100		80	> 100					70		
CN1CC(=O)N[C@@H](Cc2ccccc2)C(=O)N2CCC[C@@H]2C(=O)N2CCC[C@H]2C(=O)N[C@@H](CCCNC(=N)N)C(=O)N[C@@H](Cc2ccccc2)C(=O)N[C@@H](Cc2ccccc2)C(=O)N[C@@H](CC(N)=O)C1=O (HELM PEPTIDE1{P.R.F.F.N.[Sar].F.[dP]}$PEPTIDE1,PEPTIDE1,1:R1-8:R2$$$V2.0)	> 100			> 100			> 3.16	> 3.16		> 100	
C[C@@H]1NC(=O)[C@H](CN)NC(=O)CN(Cc2ccccc2)C(=O)[C@H](Cc2ccccc2)NC(=O)[C@H](CCCNC(=N)N)NC(=O)[C@@H]2CCCN2C(=O)[C@H]2CCCN2C(=O)[C@H](Cc2ccccc2)NC1=O	> 100	10	60	> 100							
CN1CC(=O)N[C@@H](Cc2ccccc2)C(=O)N2CCC[C@@H]2C(=O)N2CCC[C@H]2C(=O)N[C@@H](CCCNC(=N)N)C(=O)N[C@@H](Cc2ccccc2)C(=O)N[C@@H](Cc2ccccc2)C(=O)N[C@@H](CN)C1=O	> 100			> 100		> 100	0.794	2.51		> 100	
C[C@@H]1NC(=O)[C@H](CN)NC(=O)[C@H](Cc2ccccc2)NC(=O)[C@H](Cc2ccccc2)NC(=O)CN(CCCNC(=N)N)C(=O)[C@@H]2CCCN2C(=O)[C@H]2CCCN2C(=O)[C@H](Cc2ccccc2)NC1=O (HELM PEPTIDE1{[N=C(N)NCCCN(CC(=O)[*:2])[*:1]].F.F.[NC[C@H](N[*:1])C(=O)[*:2]].A.F.[dP].P}$PEPTIDE1,PEPTIDE1,1:R1-8:R2$$$V2.0)	> 100			> 100		> 100	> 3.16	1.26		> 100	
C[C@@H]1NC(=O)[C@H](CC(N)=O)NC(=O)[C@H](Cc2ccccc2)NC(=O)[C@H](Cc2ccccc2)NC(=O)[C@H](CCCNC(=N)N)NC(=O)[C@@H]2CCCN2C(=O)[C@H]2CCCN2C(=O)CN(Cc2ccccc2)C1=O	> 100		85				> 3.16	> 3.16		> 100	60
C[C@@H]1NC(=O)[C@H](CC(N)=O)NC(=O)[C@H](Cc2ccccc2)NC(=O)[C@H](Cc2ccccc2)NC(=O)CN(CCCNC(=N)N)C(=O)[C@@H]2CCCN2C(=O)[C@H]2CCCN2C(=O)[C@H](Cc2ccccc2)NC1=O (HELM PEPTIDE1{P.[N=C(N)NCCCN(CC(=O)[*:2])[*:1]].F.F.N.A.F.[dP]}$PEPTIDE1,PEPTIDE1,1:R1-8:R2$$$V2.0)	> 100		50	> 100			> 3.16	> 3.16		> 100	
